The values below come from US20240182526A1, “COMPOSITIONS AND METHODS FOR MODULTING INFLAMMATORY AND DEGENERATIVE DISORDER” (University of Southern California, priority 2021, published 2024).

The test system of experiment [1] is mouse skin excisional wound. Briefly: Wound-induced hair neogenesis (WIHN) assay, skin excisional wound. Type of experiment: in vivo. On the procedure:
Single-cell sequencing using 10× Genomics. Single cell samples were prepared using Next GEM Single Cell 5′ v2 (dual index) and Chip Kit (10× Genomics) according to the manufacturer's protocol. Briefly samples were FACS sorted using DAPI to select live cells followed by resuspension in 0.04% BSA-PBS. Nearly 1200 cells/μl were added to each well of the chip with a target cell recovery estimate of 10000 cells. Thereafter Gel bead-in Emulsions (GEMs) were generated using GemCode Single-Cell Instrument. GEMs were reverse transcribed, droplets were broken and single stranded cDNA was isolated. cDNAs were cleaned up with DynaBeads and amplified. Finally, cDNAs were ligated with adapters, post-ligation products were amplified, cleaned-up with SPRIselect and purified libraries were sequenced on Novaseq.
Wound-induced hair neogenesis assay. The WHIN assay was previously described. Briefly, a 1.5×1.5 cm square full thickness wound was excised on the posterior dorsum of 6-week-oldf mice, and observed for hair neogenesis and wound histology. Mice were anesthetized using isofluorane, full thickness skin was excised, and analgesic Buprenorphine SR (0.5 mg/kg) was given by intraperitoneal injection (IP) at the beginning of the procedure. Additional DietGel Boost (ClearH2O) was placed on the bottom of the cage during the first week post-operation. For R805-treatment, R805 (10 μM or 20 μM) was applied topically to the wound of WT mice.
Alkaline phosphatase (ALP) stain. To detect newly forming dermal papillae, alkaline phosphatase staining was performed as previously reported. Briefly, full thickness wounds were excised and epidermis separated from the dermis using 20 mM EDTA. The dermis was fixed in acetone overnight at 4° C., and washed in PBS several times. The dermis was pre-incubated in ALP buffer (0.1 M Tris-HCl, 0.1 M NaCl, 5 mM MgCl2 and 0.1% Tween-20) for 30 min, incubated with BCIP/NBT Color Development Substrate (Promega, Madison, WI, USA) in ALP buffer at 37° C. until color development. The reaction was stopped by washing with pH 8.0 Tris-EDTA and the tissue stored in PBS with sodium azide. 5 wounds were calculated for each strain of mice.
Hair fiber length quantification. To quantify regenerated hair fiber length, hair fibers from respective wounds were plucked, aligned and photographed next to a ruler under the dissecting microscope. The length of the hair fibers was measured and analyzed using ImageJ. 3-4 hairs were randomly plucked from each wound and analyzed.

Experiment [2] concerns the target T1, heterodimerization of gp130 with IL-6 family of cytokines' alpha receptors (Homo sapiens, UniProt P40189).
T1 construct: A plasmid encoding full-length gp130 (WTgp130; InVivoGen) was used to create the 5 mutants; expressed in transfected cells
Briefly: Receptor-competition assay (co-IP of gp130 FLAG with alpha receptors). The settings on record: articular chondrocytes transfected with gp130 FLAG, different doses, 4 and 24 hours. Type of experiment: cell-based. The procedure:
IP Western, SDS-PAGE and Western blot analysis. For transfections of gp130 wild type (WT) (InVivoGen) and gp130 mutant plasmids (Thermo Scientific), cells were plated 24 h prior to transfection to produce monolayers that were 60% confluent and these were transfected by using Turbo DNAfectin 3000 (cat #G3000, Lambda Biotech) according to the manufacturer's protocol. 72h after transfection, cells were maintained in DMEM (10% FBS, 1% PSA) and were either left untreated or were stimulated with IL-6 (10 ng/mL) and/or OSM (10 ng/mL) for 24 h before cell harvest and protein extraction. For immunoprecipitation assays, cell lysates were incubated with Protein G Agarose (cat #20398, Pierce) and anti-Flag antibody (cat #2368, Cell Signaling) at 4° C. overnight. The immune complexes were sedimented, washed and separated by SDS-PAGE (see below) and further analyzed by Western blot using p-SRC (pY416-SRC) (cat #1246F, Novus Biologicals) or NEMO (cat #18474-1-AP, Proteintech) antibodies and normalized to gp130 (cat #bs-1459R, Bioss) or total SRC (cat #2123, Cell Signaling). For R805 treatment, the immune complexes were sedimented, washed and separated by SDS-PAGE and further analyzed by Western blot using OSMR (cat #ab85575, Abcam), LIFR (Santa cat #515337, Cruz Biotechnology) or p-SRC (pY416-SRC) (Novus Biologicals, cat #1246F). […]

In another experiment the test system is c-MYC. Briefly: Western blot of c-MYC in pig articular chondrocytes. Type of experiment: cell-based. On the technique in general: A western blot detects proteins with antibodies after separation by electrophoresis.
[3] abbreviates: topical on WT mouse wound, PWD 21.

Entries after “also recorded” stand apart in the source; their conditions may differ.

T1 sequence (P40189 23-918, one chain of several): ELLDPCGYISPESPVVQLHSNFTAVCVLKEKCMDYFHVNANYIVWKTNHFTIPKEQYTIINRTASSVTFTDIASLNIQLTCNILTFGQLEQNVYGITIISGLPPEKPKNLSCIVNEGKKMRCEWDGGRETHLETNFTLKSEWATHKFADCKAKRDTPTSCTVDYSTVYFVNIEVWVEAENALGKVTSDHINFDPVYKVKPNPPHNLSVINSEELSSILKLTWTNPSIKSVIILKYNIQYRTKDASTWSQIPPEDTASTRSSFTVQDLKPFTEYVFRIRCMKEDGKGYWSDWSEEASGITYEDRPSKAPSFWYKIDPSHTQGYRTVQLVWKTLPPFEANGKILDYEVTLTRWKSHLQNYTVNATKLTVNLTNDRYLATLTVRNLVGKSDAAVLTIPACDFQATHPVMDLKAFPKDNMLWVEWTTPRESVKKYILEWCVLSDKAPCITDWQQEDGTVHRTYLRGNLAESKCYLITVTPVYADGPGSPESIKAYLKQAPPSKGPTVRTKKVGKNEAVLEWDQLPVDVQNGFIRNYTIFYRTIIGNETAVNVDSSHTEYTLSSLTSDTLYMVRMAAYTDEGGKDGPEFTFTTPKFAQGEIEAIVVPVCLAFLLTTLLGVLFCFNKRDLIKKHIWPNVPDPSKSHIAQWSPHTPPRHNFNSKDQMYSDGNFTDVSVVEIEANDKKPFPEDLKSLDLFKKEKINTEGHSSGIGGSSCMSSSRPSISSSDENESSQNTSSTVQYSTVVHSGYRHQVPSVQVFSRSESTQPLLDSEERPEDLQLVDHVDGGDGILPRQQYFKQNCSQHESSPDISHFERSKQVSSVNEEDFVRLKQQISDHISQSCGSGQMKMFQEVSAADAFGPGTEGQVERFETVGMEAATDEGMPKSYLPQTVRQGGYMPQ

As for `Cc1ccc(-c2csc(NC(=O)c3ccccn3)n2)cc1` [Peptide R805], the “scRNA-seq macrophage clusters of skin wounds” value in experiment [1] (PWD 14) is “higher expression of genes characteristic of pro-regenerative/anti-inflammatory macrophages”. Besides, the “hair fiber length and number of hair follicles” value in experiment [1] (topical on WT mouse wound) was “increase of hair fiber length and number of hair follicles”. For the same molecule, in experiment [1] (setting [3]), the “hair follicle neogenesis and dermal regeneration” value was “significant hair follicle neogenesis and dermal regeneration; also recorded: enhanced wound-induced hair neogenesis”; the “wound histology (thickness, contraction, collagen deposition)” value was “thicker, less contracted and shows less collagen deposition”. The “IL-6 family-induced heterodimerization of gp130 with α-receptors” value in experiment [2] is listed as “markedly suppressed; also recorded: inhibits heterodimerization of gp130 with IL-6 family of cytokines' alpha receptors”. Further, in the experiment on c-MYC, the “protein levels of c-MYC (MYC signaling)” value is “does not activate MYC signaling”.
